For experiment [1], the system named is chick CAM. In words: CAM (chick chorio-allantoic membrane) assay. In kind it is in vivo. Conditions: 500 nM and 250 nM. The method, then:
(A) Chick CAM assays were used to observe the effect of Compound 1 on angiogenesis in vivo. 1 mm^2 window was made in 8 days old chicken eggs to expose the CAM, and a gelatin disc ([…]) treated with vehicle (0.1% DMSO), sunitinib and Compound 1 at a indicated concentrations were placed on the CAM surface. Post 4 days of incubation, the discs and associated CAM were photographed and excised out, for hemoglobin estimation by drapkin's reagent. (B) Blood vessel density was calculated and Hb. concentration was measured and representative graph was plotted for the control and treatment group and data are represented as mean±SEM with significant difference from control at *p<0.05, **p<0.01 and ***p<0.001.
The eggs were incubated horizontally for 3 days at 37° C. in a 60% humidified atmosphere, using a hybridization incubator (combi-SV 12) with one hour scheduled rotation. Post 3 days of incubation, 2-3 mL of albumin was aspirated from the acute pole of the egg to create false air sac directly over the CAM. Post fertilization (Day 8), a fine blade was used to make an approximate 0.5 cc square incision on the eggshell under sterile conditions and the eggshell window fragment was removed to access the CAM beneath. A piece of gelatin sponge embedded in Compound 1 (500 nM and 250 nM) and sunitinib (2 μM) individually were placed on the CAM of the chicken embryo and incubated for 12 days. Sterile parafilm tape was used to seal back the window and the eggs were further incubated without the rotation setting. After 12 days of incubation the CAM integration was assessed by visual inspection and photographed with a digital camera (Canon EOS); the CAM membrane along with gelatin sponge were harvested and its hemoglobin (Hb.) estimation was done by Drabkin's method according to the manufacturer's protocol (Sigma, St. Louis, Mo.). Absorbance was measured at 540 nm and hemoglobin concentration was calculated.

Experiment [2] has as its system phospho-VEGFR2. As to the kind of experiment: Immunoblotting of treated HUVECs, phospho-VEGFR2. Conditions: 250 nM, 6 h. In kind it is cell-based, human. The method, then:
(§1) (A) Serum-starved HUVECs were treated with control (0.1% DMSO), sunitinib and Compound 1 at a given concentrations and then incubated for 6 h. The expression level of phospho-VEGFR2 and GAPDH (housekeeping protein) was analyzed by immunoblotting. (B) Blots were quantified with Image-J software and the bar graphs represent the relative density of phospho-VEGFR2 normalized with GAPDH and the data are represented as mean±SEM with significant difference compared with control at *p<0.05. (D) Protein angiogenesis array showing up-regulation of anti-angiogenic protein and down-regulation of pro-angiogenic proteins on endothelial cell treated with Compound 1 at 260 nM.
(§2) Whole cell lysates of endothelial cells at 6 h of treatment with Compound 1 (250 nM) and sunitinib (50 nM) were prepared using the RIPA-lysis buffer. Proteins were fractionated and resolved on 8% SDS-PAGE gels and transferred onto PVDF membranes (Millipore). After incubation in blocking buffer (5% BSA in 1×TBST) for 1 h the membranes were incubated with primary antibodies specific for p-Akt and p-Src. GAPDH was used as housekeeping and loading control. The blots were then incubated with specific HRP-conjugated secondary antibodies and bands were visualized using ECL (Millipore) on Image Quant (LAS4010) chemiluminescence detection system. The band intensities were quantified using My Image Analysis software.
On the technique in general: Immunoblotting shows a protein as a band on a membrane.

Experiment [3] has as its system Src-kinase. As to the kind of experiment: Immunoblotting of treated HUVECs, Src-kinase. In kind it is cell-based, human. The following applies: 250 nM, 6 h. The method, then:
as §1, §2

The subject of experiment [4] is HUVECs. As to the kind of experiment: 3D angiogenesis assay (cytodex beads in fibrin matrix). The format is cell-based, human. The method, then:
(A) ECs were seeded on fibrinogen matrix and were treated with sunitinib and compound 1 at indicated concentrations. Post 5 days of incubation pictures were taken at 10× using inverted microscope. (B) Tube length was quantified using Leica QWin software and graph was plotted taking control (0.01% DMSO) treated cells. Data are represented as mean±SEM with significant difference from control at *p<0.05, **p<0.01 and ***p<0.001.
Anti-angiogenic effect of Compound 1 was further validated by 3D angiogenesis assay (FIG. 5).
Endothelial cells (ECs) were trypsinized and then coated on cytodex beads at the rate of 1500 cells per bead in 5% DMEM medium at 37° C. for 4 h by rotating it gently on IP rotor. Fibrinogen (2 mg/mL) and Aprotonin (40 U/μL) were added to the ECs coated beads and this was subsequently added to the 96 well plate pre-coated with […] (10 U/μL) and incubated for 15 min. Vehicle control in 2.5% DMEM media with different doses of Compound 1 (500 nM, 250 nM, 125 nM and 75 nM) were used to observe the anti-angiogenic effect of Compound 1 on 3D angiogenesis pattern. Post 3 days of incubation the results were observed and photographs were taken under inverted microscope (Olympus, Centre Valley, Pa., USA) and relative tubule lengths were measured using Leica Q-Win software version 3.5.1. (Leica Microsystems, Switzerland).

In experiment [5] the test system is ECs. In words: Post tubule formation assay (disruption of preformed tubules). The format is cell-based, human. Conditions: treatment of already formed tubule. The method, then:
FIG. 3 represents effect of Compound 1 on post tubule formation by ECs. (A) ECs were incubated with indicated different concentrations of compound 1 along with VEGF (50 ng/mL) and sunitinib (50 nM) after 6 h of treatment to the already formed tubule. Post treatment photographs were taken at using an inverted microscope at 10×magnification.

The test system of experiment [6] is endothelial cell. In words: Protein angiogenesis array. Conditions: 260 nM. The format is cell-based. As to the method:
as §1

The subject of experiment [7] is HUVECs protein lysate. In words: Drug Affinity Receptor Target (DART) analysis. In kind it is binding, human. The following applies: 10 mM. As to the method: HUVECs with confluency of 80-85% in 100 mm dish were trypsinised and the media was removed and washed twice with 1×PBS. These cells were lysed with lysis buffer at 4° C. Control and treatment group with […] of protein were incubated with vehicle and Compound 1 at a concentration of 10 mM for 15-30 mins at RT with gentle shaking. Then different proteases like thermolysin (10 μg/15 μL) and pronase at […] were added to both the control and treatment groups for 5-10 mins at RT. Digestion was stopped by adding protease inhibitor (20×) at specific interval and allowed to incubate at 4° C. for 10 mins. 6×SDS-PAGE loading dye was added to all the respective samples and heated at 70° C. for 10 mins. SDS-PAGE was performed for the given control and treatment group samples and then the gel was stained with 0.05% Coomassie Brilliant Blue (CBB-R250). After destaining the gel, bands of different molecular weight of treatment and control groups were excised off from the gel and further employed for the protein sequence analysis through LC/MS-MS (Liquid chromatography/Mass spectroscopy).

Consider `CCOC(=O)C1N=C1CCc1ccc(OC)cc1` (racemic) [Compound 1, Ethyl 3-(4-methoxyphenethyl)-2H-azirine-2-carboxylate], for which, in experiment [1], the blood vessels density entry is listed as “suppressed blood vessels density” and the hemoglobin content was in the range of 50 to 60 µg/mL. For the same molecule, the p-VEGFR2 expression result in experiment [2] is recorded as “marked reduction”. The Src-kinase expression entry in experiment [3] is listed as “marked reduction”. This molecule yielded a tubule formation in experiment [4] (75 nM) of 100%. The “tubulogenesis in 3D angiogenesis” value in experiment [4] (500 nM, 250 nM, 125 nM and 75 nM vs control) is “tubulogenesis inhibitory effect”. Besides, the “disruption of preformed tubules” value in experiment [5] is “could not be able to disrupt the preformed tubules”. In experiment [6], the “expression of anti-angiogenic and angiogenic proteins” value is “significantly increased the protein expression of anti-angiogenic proteins and decreased the expression of angiogenic proteins”. The “protection of protein band against protease digestion” value in experiment [7] is “Intact protein band was observed”.

(Values after US20230234920A1, “Azirine Containing Compounds as Anti-Angiogenesis Agents and a Process for the Preparation Thereof” (COUNCIL OF SCIENTIFIC & INDUSTRIAL RESEARCH, priority 2020, published 2023).)
